Reference: patent publication US10857105B2, “Compounds and compositions for intracellular delivery of therapeutic agents” (ModernaTX, Inc., priority 2017, dated 2020)
“Also recorded” adds a separate entry of the source.

Experiments:
[1] = test system: modified luciferase (Luc) mRNA and H10 mRNA; assay: Expression after intramuscular administration of formulations including Luc mRNA and H10 mRNA; format: in vivo; conditions: 6 hours after intramuscular administration
Description: Sample formulations including both modified luciferase (Luc) mRNA and H10 mRNA were prepared and administered intramuscularly and the resulting expression and immunogenicity were evaluated simultaneously. Formulations including compounds according to Formula (I), (IA), (IB), (II), (IIa), (IIb), (IIc), (IId), (IIe), (IIf), (IIg), or (III) were prepared and administered at doses of 0.001 and 0.01 mpk (e.g., doses of 0.0005 mpk of a formulation including Luc mRNA and a formulation including H10 mRNA or doses of 0.005 mpk of a formulation including Luc mRNA and a formulation including H10 mRNA).
The fluxes measured upon intravenous and intramuscular administration are compared in Table 6. Fluxes are presented as fold increase over that measured for MC3 formulations.

CD-1 mouse liver = assay: Lipid remaining in mouse liver tissue 24 h post dose (LC-MS/MS); format: in vivo; conditions: CD-1 mouse liver 24 h after 0.5 mg/kg bolus dose mRNA, n = 5 ± S.D.
Description: LNP administration to animals: mRNA-LNPs diluted in phosphate buffered saline (PBS) were injected intravenously (5 mL/kg) into female CD-1 female mice (18 to 22 g in body weight) and male Sprague-Dawley rats (225-250 g in body weight) via the tail vein using 29 g, 3/10 cc insulin syringes (mice) or 27 g, 1 mL syringes (rats) after gentle warming of the animals using a heat lamp for 3 minutes.
Quantification of Lipid by LC-MS/MS: Liver samples were homogenized following addition of 19 eq. […] Protein was precipitated and analyzed against calibration standards prepared in matching blank. Chromatographic separation and quantification was accomplished with a LC-MS/MS System. Samples were injected and separated via HPLC A triple-quadrupole MS/MS system operated in positive ion mode was used for signal detection.

[2] = Alanine aminotransferase (ALT) and aspartate aminotransferase (AST) in rat after intravenous administration; format: in vivo
Description: Table 19A summarizes the hEPO expression, IP-10 induction, liver and spleen levels, and alanine aminotransferase (ALT) and aspartate aminotransferase (AST) measured upon intravenous administration of formulations including Compounds 48, 49, and 50 to rat at 0.2 and 2 mpk and hEPO mRNA. hEPO concentrations were measured 6 hours after administration, while cytokine induction and liver and spleen levels were measured 48 hours after administration. hEPO and IP-10 concentrations are presented in pg/ml, while liver levels are provided in ng/g. ALT and AST levels are presented in international units.

hEPO mRNA = assay: hEPO expression and pharmacokinetic parameters after intravenous infusion to non-human primates; format: in vivo; conditions: 0.01 mpk, iv infusion 60 minutes, cynomolgus monkeys
[3] = test system: mRNA encoding anti-HA antibody; assay: Anti-HA (anti-hemagglutinin) antibody expression after intravenous infusion to cynomolgus monkeys; format: in vivo; conditions: iv infusion 60 minutes
Description: FIGS. 11A and 11B show the results of anti-HA (anti-hemagglutinin) antibody expression measured after intravenous administration of various nanoparticle compositions including MC3 and Compound 18 at a 0.1 mpk (FIG. 11A) or 0.3 mpk (FIG. 11B) dose with 60 minutes infusion to naive cynomolgus monkeys.
FIGS. 31A-31C is a series of graphs illustrating the expression profile for lipid nanoparticles of the disclosure in a cynomolgus money study. FIG. 31A illustrates hEPO serum concentrations after delivery of 0.01 mg/kg hEPO mRNA in MC3 or Compound 18. The liquid nanoparticles were administered intravenously, via a 60 min. infusion (n=3). p<0.05 for Compound 18 AUC relative to MC3.
FIG. 36 is a graph illustrating Human IgG expression in a cynomolgus monkey administered with 0.1 mg/kg human IgG mRNA in a composition comprising MC3 or compound 18, intravenously via a 60 min. infusion (n=3).
Results of hEPO expression studies were validated using a standard MC3 formulation and a nanoparticle composition containing Compound 18 including an mRNA encoding an anti-hemagglutinin (anti-HA) antibody. Cynomolgus monkeys were administered a single dose of 0.1 mpk or 0.3 mpk of nanoparticle composition containing Compound 18 (see Table 33; prepared according to Example 2) including an mRNA encoding anti-HA antibody via intravenous infusion for 60 minutes.

CD-1 mice = assay: Luciferase expression after intravenous delivery of luciferase mRNA LNPs (bioluminescent imaging); format: in vivo; conditions: intravenous 0.5 mg/kg mRNA dose
Description: Whole body and ex vivo organ bioluminescent imaging of mice: CD-1 mice were injected 15 minutes prior to the imaging timepoint intraperitoneally (IP) with 200 μL Xenolight D-luciferin K+ salt, diluted in PBS just prior to use to a concentration of 15 mg/mL. Ex vivo imaging of organs was completed, within 25 minutes of luciferin administration. All images were quantified by region of interest for total flux.
[…] […] (See Semple, S.C. et al., Nature Biotech. 2010. 28, 172-176, Jayaraman, M., et al. Angew. Chem. Int. Ed. 2012, 51, 8529-8533, the entire contents of each of which are incorporated by reference herein in their entireties). To evaluate the efficiency of the new amino lipids, LNPs using the novel compounds were tested in vivo in mice using luciferase mRNA as a reporter. An MC3 LNP was included as a control in each experiment, enabling the comparison of LNPs from experiment to experiment. Measured luciferase activity also enabled the determination of protein bio-distribution.

[4] = Metabolite identification of Compound 18 incubated with human plasma; format: in vitro ADME; set-up: key to Detection at 0 min / Detection at 30 min / Detection at 60 min / Detection at 90 min: +: Detected; ND: Not detected
Description: Metabolite Identification: Compound 18 (10 μM) was incubated with human plasma (29.0 mg protein/incubation) in incubation mixtures (200 μL final incubation volume) that consisted of 50/50 v/v neat plasma (undiluted)/substrate solution in 50 mM phosphate buffer, pH 7.4). The plasma was obtained from male and female donors and contained K2EDTA anticoagulant. Reactions were started by addition of the substrate solution to human plasma and were stopped at four designated time points (0, 30, 60 and 90 min) by the addition of 600 μL of stop reagent (acetonitrile). Stopped incubation samples were centrifuged (e.g., 10,000×g for 10 min at 10° C.) and the supernatant fractions were analyzed by LC-MS/MS to characterize the metabolites formed from compound 18. Additional incubations were performed with the positive control procaine […] to establish competency of the test system. Samples were analyzed by LC-MS/MS.
In vitro metabolite identification studies using compound 18 were also performed. […] The disappearance of parent compound 18 and the primary metabolite, compound 166, from mouse liver tissue was measured after dosing 0.25 mg/kg mRNA on days 1, 8, and 15.

[5] = One month toxicology evaluation in cynomolgus monkeys (serum ALT, AST, C5b9, MCP-1); format: in vivo; conditions: 1 mg/kg mRNA
Description: FIGS. 32A-32C are a series of graphs summarizing the results of a one month toxicology evaluation in rat and non-human primate. PBS (phosphate buffered saline) was used as a control. […] The serum levels were measured 24 post fifth dose (n=4). […] The serum levels were measured 24 post fifth dose (n=4).
FIGS. 33A and 33B are a pair of graphs summarizing the results of a one month toxicology evaluation in rats and non-human primates.
FIG. 38 is a graph showing mRNA levels in NHP after repeat dosing over the course of 29 days.

[6] = 60 min infusion, dosed weekly, after fifth dose (n=4)

CCCCCC=CCC=CCCCCCCCCC(CCCCCCCCC=CCC=CCCCCC)OC(=O)CCCN(C)C (stereo not shown) [MC3, heptatriaconta-6,9,28,31-tetraen-19-yl 4-(dimethylamino)butanoate, reference compound]
Total flux, 0.001 mpk Dose [1]: 2.76E+06 p/s | Total flux, 0.01 mpk Dose [1]: 3.68E+07 p/s | % dose remaining Mouse liver tissue, 24 h (CD-1 mouse liver): 71 ± 27% | ALT ([2]; intravenous 0.2 mpk): 63.6 international units | AST ([2]; intravenous 0.2 mpk): 134.8 international units | ALT ([2]; intravenous 2 mpk): 79.6 international units | AST ([2]; intravenous 2 mpk): 139.0 international units | AUC Lipid/MC3 Ratio (hEPO mRNA): 1.0 | AUC (anti-HA antibody expression) ([3]; Dose 0.1 mpk): 77.05 µg·h/mL | AUC (anti-HA antibody expression) ([3]; Dose 0.3 mpk): 235.7 µg·h/mL

CCCCCCCCCCCOC(=O)CCCCCN(CCO)CCCCCCCC(=O)OC(CCCCCCCC)CCCCCCCC [Compound 25, Heptadecan-9-yl 8-((2-hydroxyethyl)(6-oxo-6-(undecyloxy)hexyl)amino)octanoate]
luciferase activity/expression compared to MC3 LNP control (words) (CD-1 mice): higher expression compared to MC3

CCCCCCCCCOC(=O)CCCN(CCO)CCCCCCCC(=O)OC(CCCCCCCC)CCCCCCCC [Compound 26, Heptadecan-9-yl 8-((2-hydroxyethyl)(4-(nonyloxy)-4-oxobutyl)amino) octanoate]
luciferase activity/expression compared to MC3 LNP control (words) (CD-1 mice; 0.5 mg/kg): higher expression compared to MC3; also recorded: highest luciferase activity of the series

CCCCCCCCCOC(=O)CCCCCCCN(CCO)CCCCCCCC(=O)OC(CCCCCCCC)CCCCCCCC [Compound 18, Heptadecan-9-yl 8-((2-hydroxyethyl)(8-(nonyloxy)-8-oxooctyl)amino)octanoate]
Detection at 0 min ([4]; Compound 18 (10 μM), human plasma (29.0 mg protein/incubation), 0 min): + | Detection at 30 min ([4]; Compound 18 (10 μM), human plasma, 30 min): + | Detection at 60 min ([4]; Compound 18 (10 μM), human plasma, 60 min): + | Detection at 90 min ([4]; Compound 18 (10 μM), human plasma, 90 min): + | initial step of metabolism ([4]; in vitro metabolite identification studies): hydrolysis of the primary ester | % dose remaining Mouse liver tissue, 24 h (CD-1 mouse liver): no lipid detected at 24 h | Serum alanine aminotransferase levels [5, 6]: No statistical difference between PBS pre-dose and day 30 levels | Serum aspartate aminotransferase levels [5, 6]: No statistical difference between PBS pre-dose and day 30 levels | MCP-1 serum concentration ([5]; day 1 and day 29 (n=4)): no statistical difference between PBS and Compound 18 at any other timepoint | AUC (anti-HA antibody expression) ([3]; Dose 0.1 mpk): 354.3 µg·h/mL | AUC (anti-HA antibody expression) ([3]; Dose 0.3 mpk): 1055 µg·h/mL

Nonyl 8-((6-(heptadecan-9-yloxy)-6-oxohexyl)(2-hydroxyethyl)amino) octanoate [Compound 27]
Total flux, 0.001 mpk Dose [1]: 2.55E+06 p/s | Total flux, 0.01 mpk Dose [1]: 3.17E+07 p/s
